Experimental data reported in the supplement of paper PMC10307832.

How the values were obtained:
Assay in all cases: relative viability (nuclei count vs DMSO), 5 days (fraction); higher = more cells survive
Lapatinib + Trametinib = compound: CS(=O)(=O)CCNCc1ccc(-c2ccc3ncnc(Nc4ccc(OCc5cccc(F)c5)c(Cl)c4)c3c2)o1 [Lapatinib] + CC(=O)Nc1cccc(-n2c(=O)n(C3CC3)c(=O)c3c(Nc4ccc(I)cc4F)n(C)c(=O)c(C)c32)c1 [Trametinib] (partner 0.02 µM)
Procedure, shortened: (§1)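 Relative viability equals treated-well nuclei counts divided by vehicle-well nuclei counts. Counts came from 4× images of lung cancer cell lines grown in 1536-well plates for 5 days after pin-tool dosing on the day after seeding. Dosing used one drug alone or a fixed anchor-drug dose plus five library-drug doses (not always all listed) in √10 steps, and values are medians of duplicate plates.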

Lapatinib + OSI-027 = compound: CS(=O)(=O)CCNCc1ccc(-c2ccc3ncnc(Nc4ccc(OCc5cccc(F)c5)c(Cl)c4)c3c2)o1 [Lapatinib] + COc1cccc2cc(-c3nc([C@H]4CC[C@H](C(=O)O)CC4)n4ncnc(N)c34)[nH]c12 [OSI-027] (partner 0.5 µM)
Procedure, shortened: as §1

Lapatinib + Linsitinib = compound: CS(=O)(=O)CCNCc1ccc(-c2ccc3ncnc(Nc4ccc(OCc5cccc(F)c5)c(Cl)c4)c3c2)o1 [Lapatinib] + C[C@]1(O)C[C@@H](c2nc(-c3ccc4ccc(-c5ccccc5)nc4c3)c3c(N)nccn32)C1 [Linsitinib] (partner 1 µM)
Procedure, shortened: as §1

Lapatinib + Olaparib = compound: CS(=O)(=O)CCNCc1ccc(-c2ccc3ncnc(Nc4ccc(OCc5cccc(F)c5)c(Cl)c4)c3c2)o1 [Lapatinib] + O=C(c1cc(Cc2n[nH]c(=O)c3ccccc23)ccc1F)N1CCN(C(=O)C2CC2)CC1 [Olaparib] (partner 8 µM)
Procedure, shortened: as §1

| Cell Line | relative viability (Lapatinib + Trametinib; first compound 0.06325 µM) | relative viability (Lapatinib + Trametinib; first compound 0.2 µM) | relative viability (Lapatinib + Trametinib; first compound 0.6325 µM) | relative viability (Lapatinib + Trametinib; first compound 2 µM) | relative viability (Lapatinib + OSI-027; first compound 0.02 µM) | relative viability (Lapatinib + OSI-027; first compound 0.2 µM) | relative viability (Lapatinib + OSI-027; first compound 0.6325 µM) | relative viability (Lapatinib + OSI-027; first compound 2 µM) | relative viability (Lapatinib + Linsitinib; first compound 0.02 µM) | relative viability (Lapatinib + Linsitinib; first compound 0.06325 µM) | relative viability (Lapatinib + Linsitinib; first compound 0.2 µM) | relative viability (Lapatinib + Linsitinib; first compound 0.6325 µM) | relative viability (Lapatinib + Linsitinib; first compound 2 µM) | relative viability (Lapatinib + Olaparib; first compound 0.02 µM) | relative viability (Lapatinib + Olaparib; first compound 0.06325 µM) | relative viability (Lapatinib + Olaparib; first compound 0.2 µM) | relative viability (Lapatinib + Olaparib; first compound 0.6325 µM) | relative viability (Lapatinib + Olaparib; first compound 2 µM) | relative viability (Lapatinib + OSI-027; first compound 0.06325 µM) | relative viability (Lapatinib + Trametinib; first compound 0.02 µM) |
| --- | --- | --- | --- | --- | --- | --- | --- | --- | --- | --- | --- | --- | --- | --- | --- | --- | --- | --- | --- | --- |
| NCI-H2023 | 0.397 | 0.429 | 0.433 | 0.328 | 0.379 | 0.337 | 0.382 | 0.177 | 0.594 | 0.519 | 0.474 | 0.512 | 0.366 | 0.435 | 0.455 | 0.436 | 0.444 | 0.397 | – | – |
| HCC-78 | 0.509 | 0.668 | 0.681 | 0.675 | – | 0.315 | 0.381 | 0.344 | – | 0.383 | 0.461 | 0.441 | 0.448 | – | 0.519 | 0.926 | 0.814 | 0.846 | 0.324 | – |
| HOP-62 | 0.378 | 0.343 | 0.472 | 0.293 | 0.486 | 0.89 | 0.866 | 0.914 | – | 0.923 | 0.91 | 0.857 | 1.01 | – | 0.4 | 0.59 | 0.328 | 0.369 | 0.756 | – |
| NCI-H1755 | 0.729 | 0.792 | 0.793 | 0.717 | 0.423 | 0.653 | 0.696 | 0.697 | 0.983 | 0.963 | 0.982 | 0.95 | 0.714 | 0.855 | 0.837 | 0.885 | 0.882 | 0.815 | 0.567 | 0.77 |
| NCI-H1651 | 0.809 | 0.827 | 0.806 | 0.811 | 0.648 | 0.622 | 0.648 | 0.519 | 0.946 | 0.884 | 0.922 | 0.846 | 0.9 | 0.193 | 0.183 | 0.181 | 0.197 | 0.178 | 0.454 | 0.856 |
| SK-MES-1 | 0.446 | 0.425 | 0.339 | 0.275 | 0.472 | 0.6 | 0.578 | 0.256 | 1.12 | 1.01 | 0.97 | 0.69 | 0.663 | 0.726 | 0.699 | 0.569 | 0.464 | 0.221 | 0.453 | 0.512 |
| NCI-H2085 | 0.56 | 0.511 | 0.559 | 0.452 | – | 0.61 | 0.584 | 0.269 | 0.919 | 0.89 | 0.811 | 0.813 | 0.62 | 0.744 | 0.795 | 0.8 | 0.711 | 0.581 | 0.536 | 0.404 |
| EKVX | 0.29 | 0.315 | 0.249 | 0.147 | 0.594 | 0.575 | 0.58 | 0.325 | 0.922 | 0.757 | 0.956 | 0.579 | 0.179 | – | 0.694 | 0.77 | 0.602 | 0.337 | 0.502 | – |
| NCI-H1437 | 0.492 | 0.498 | 0.458 | 0.303 | 0.814 | 0.841 | 0.751 | 0.645 | 0.898 | 0.968 | 1.05 | 0.864 | 0.875 | 0.62 | 0.626 | 0.62 | 0.609 | 0.507 | 0.684 | 0.475 |
| BEN | 0.898 | 1.05 | 0.931 | 0.999 | – | 0.298 | 0.288 | 0.25 | 0.91 | 0.858 | 0.878 | 0.769 | 0.8 | 1.13 | 1 | 1.07 | 1.01 | 0.837 | 0.279 | 1.05 |
| NCI-H1666 | 0.718 | 0.727 | 0.674 | 0.501 | 0.828 | 0.645 | 0.657 | 0.316 | 0.822 | 0.681 | 0.704 | 0.611 | 0.248 | 0.761 | 0.776 | 0.743 | 0.703 | 0.719 | 0.732 | 0.722 |
| LCLC-103H | 0.641 | 0.664 | 0.668 | 0.631 | 0.409 | 0.429 | 0.417 | 0.436 | – | 0.978 | 0.998 | 0.955 | 1.08 | 0.786 | 0.664 | 0.762 | 0.719 | 0.762 | 0.372 | 0.659 |
| NCI-H2009 | 0.236 | 0.295 | 0.294 | 0.268 | 0.64 | 0.681 | 0.764 | 0.66 | 1.22 | 1.22 | 1.22 | 1.18 | 1.09 | 0.666 | 0.712 | 0.694 | 0.696 | 0.567 | 0.557 | 0.266 |
| LOU-NH91 | 0.684 | 0.726 | 0.709 | 0.665 | 0.608 | 0.51 | 0.589 | 0.453 | 0.861 | 0.761 | 0.753 | 0.637 | 0.464 | 0.921 | 0.748 | 0.836 | 0.696 | 0.617 | 0.577 | 0.787 |
| NCI-H441 | – | 0.398 | 0.392 | 0.417 | – | 0.53 | 0.559 | 0.617 | 0.377 | 0.659 | 0.494 | 0.457 | 0.593 | 0.689 | – | 0.48 | 0.486 | 0.559 | 0.34 | 0.429 |
| NCI-H661 | 0.536 | 0.549 | 0.432 | 0.388 | 0.654 | 0.545 | 0.495 | 0.424 | 0.616 | 0.485 | 0.436 | 0.454 | 0.266 | 0.663 | 0.72 | 0.708 | 0.631 | 0.545 | 0.322 | 0.509 |
| NCI-H1355 | 0.349 | 0.37 | 0.387 | 0.261 | – | 0.342 | 0.367 | 0.268 | – | 0.745 | 0.782 | 0.792 | 0.526 | 0.719 | 0.594 | 0.699 | 0.688 | 0.439 | 0.216 | 0.406 |
